Assay: solubility (saturation concentration) of the salts in water versus temperature, FIG. 2
Type: physicochemical
Conditions: at 0° C., aqueous, read from FIG. 2

Compound: [Cl-].[K+] [KCl]
- saturation concentration in water: about 0.41 moles/100 g H2O

Reference: US20090155318A1, “PROCESS TO FORM NANO-SIZED MATERIALS, THE COMPOSITIONS AND USES THEREOF” (priority 2006, published 2009)
